According to ChEMBL document CHEMBL1629650 (2009):
Converted amounts (≈) assume the structure as drawn.

How the values were obtained:
Type in all cases: functional
[1] = test system: Mycobacterium tuberculosis; test: Antibacterial activity against HYG cassette-positive Mycobacterium tuberculosis B5401 by modified conventional agar proportion method
[2] = test system: Mycobacterium tuberculosis; test: Antibacterial activity against HYG cassette-negative Mycobacterium tuberculosis Beijing by modified conventional agar proportion method
[3] = test system: Mycobacterium tuberculosis; test: Antibacterial activity against HYG cassette-positive Mycobacterium tuberculosis Rv4401 by modified conventional agar proportion method
[4] = test system: Mycobacterium tuberculosis; test: Antibacterial activity against Mycobacterium tuberculosis Beijing by modified conventional agar proportion method
[5] = test system: Mycobacterium tuberculosis; test: Antibacterial activity against HYG cassette-positive Mycobacterium tuberculosis B5400 by modified conventional agar proportion method
[6] = test system: Mycobacterium tuberculosis; test: Antibacterial activity against HYG cassette-positive Mycobacterium tuberculosis Rv8101 by modified conventional agar proportion method
[7] = test system: Mycobacterium tuberculosis; test: Antibacterial activity against HYG cassette-positive Mycobacterium tuberculosis Rv4400 by modified conventional agar proportion method
[8] = test system: Mycobacterium tuberculosis; test: Antibacterial activity against HYG cassette-positive Mycobacterium tuberculosis B5200 by modified conventional agar proportion method
[9] = test system: Mycobacterium tuberculosis; test: Antibacterial activity against HYG cassette-negative Mycobacterium tuberculosis H37Rv by modified conventional agar proportion method
[10] = test system: Mycobacterium tuberculosis; test: Antibacterial activity against HYG cassette-positive Mycobacterium tuberculosis BAS10 by modified conventional agar proportion method
[11] = test system: Mycobacterium tuberculosis; test: Antibacterial activity against HYG cassette-positive Mycobacterium tuberculosis Rv8100 by modified conventional agar proportion method
[12] = test system: Mycobacterium tuberculosis; test: Antibacterial activity against HYG cassette-positive Mycobacterium tuberculosis RvAS9 by modified conventional agar proportion method
[13] = test system: Mycobacterium tuberculosis; test: Antibacterial activity against HYG cassette-positive Mycobacterium tuberculosis B5201 by modified conventional agar proportion method
[14] = test system: Mycobacterium tuberculosis; test: Antibacterial activity against Mycobacterium tuberculosis H37Rv by modified conventional agar proportion method

For `CC[C@@H](CO)NCCN[C@@H](CC)CO` [ETHAMBUTOL], the MIC [1] was 5 mg/L (≈ 24.5 µM), the MIC [2] was 5 mg/L (≈ 24.5 µM) and the MIC [3] was 10 mg/L (≈ 48.9 µM). It also gave an MIC [4] of 5 mg/L (≈ 24.5 µM), an MIC [5] of 5 mg/L (≈ 24.5 µM) and an MIC [6] of 5 mg/L (≈ 24.5 µM). It also gave an MIC [7] of 10 mg/L (≈ 48.9 µM), an MIC [8] of 5 mg/L (≈ 24.5 µM) and an MIC [9] of 5 mg/L (≈ 24.5 µM). The MIC [10] was 5 mg/L (≈ 24.5 µM), the MIC [11] was 5 mg/L (≈ 24.5 µM) and the MIC [12] was 5 mg/L (≈ 24.5 µM). For the same compound, the MIC [13] was 5 mg/L (≈ 24.5 µM) and the MIC [14] was 5 mg/L (≈ 24.5 µM).
